Results as given in BindingDB's records for doi:10.1080/14756360701546595 (University of Zimbabwe, 2008).

Molecular target: T1, Glutathione S-transferase E2 (Anopheles gambiae, UniProt Q9GPL8)
T1 sequence (Q9GPL8 whole entry): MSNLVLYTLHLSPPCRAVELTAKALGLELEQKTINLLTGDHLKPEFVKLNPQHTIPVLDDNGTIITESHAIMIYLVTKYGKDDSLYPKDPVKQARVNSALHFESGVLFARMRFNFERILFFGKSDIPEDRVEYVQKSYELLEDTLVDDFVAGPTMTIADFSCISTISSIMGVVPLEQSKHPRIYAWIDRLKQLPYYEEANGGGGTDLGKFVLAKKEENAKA
Assay: GST Inhibition Assay
Settings: pH 6.5; 30 °C
From the text: A range of natural product were screened for inhibition of AgGSTE2. GST activity was monitored by measuring absorbance at 340 nm with time, using a SpectraMax 340 microplate spectrophotometer equipped with a kinetics mode from Molecular Devices, Sunnyvale, California, USA.

Structure (SMILES) | IC50 [µM]
CC(C)=CCCC1(C)C(CC=C(C)C)CC2(CC=C(C)C)C(=O)C(C(=O)c3ccc(O)c(O)c3)C(=O)C1(CC=C(C)C)C2=O (stereo not given) [GGI] | 4.8
COc1cc(O)c(-c2c(C)cc(O)c3c2Cc2cccc(O)c2C3=O)c(O)c1C(C)=O [Name not given] | 3.5
C=C(CC)C(=O)c1ccc(OCC(=O)O)c(Cl)c1Cl [[2,3-dichloro-4-(2-methylidenebutanoyl)phenoxy]acetic acid] | 1.4

The next lines start with the values.

IC50 [µM] | Structure (SMILES)
4.3 | O=Cc1occ2c(O)c3c(O)ccc(O)c3c(O)c12 [MR-13/4]
1.5 | C=Cc1c(OC=O)cc(O)c2c1OC(c1ccc(O)c(O)c1)C(O)C2 (stereo not given) [TRAL-1]
